The source of these data is patent US8420696B2, “Use of low-dose ladostigil for neuroprotection” (priority 2005, dated 2013).

SMILES strings stand for the structures. Where “and” joins values, the source holds several entries; their conditions need not be identical. Equal values may be shown once. Entries after “also recorded” stand apart in the source; their conditions may differ.

The test system of test [1] is aged rats (spatial learning). In words: Example 3: spatial learning of aged rats in Morris water maze. In kind it is in vivo, Wistar rats. Conditions: 1 mg/kg/day in drinking fluid for four months from age 16 months. As to the method: Experiments were performed in 30 male rats of the Wistar strain. […] The rats were housed in pairs at an ambient temperature of 21° C. They were weighed once weekly and their fluid intake measured daily for two weeks and then twice weekly for the remaining 4 months. Ten of the rats were started on ladostigil 1 mg/kg/day in the drinking fluid when aged 16 months and given the drug for four months. The remaining 10 rats of the same age were given regular drinking water. At the end of the four months spatial memory of these 20 rats and of another 10 aged 3 months was tested in the Morris water maze as previously described (Shoham et al, 2006).

Test [2] has as its system dopaminergic neuroblastoma SH-SY5Y cells. The settings on record: cited from earlier work.
Test [3] addresses T1, MAO-A (Rattus norvegicus, UniProt P21396).
T1 construct: from tissue; host or cells: striatum homogenate of dosed Sprague-Dawley rats
T1 sequence (P21396 1-526): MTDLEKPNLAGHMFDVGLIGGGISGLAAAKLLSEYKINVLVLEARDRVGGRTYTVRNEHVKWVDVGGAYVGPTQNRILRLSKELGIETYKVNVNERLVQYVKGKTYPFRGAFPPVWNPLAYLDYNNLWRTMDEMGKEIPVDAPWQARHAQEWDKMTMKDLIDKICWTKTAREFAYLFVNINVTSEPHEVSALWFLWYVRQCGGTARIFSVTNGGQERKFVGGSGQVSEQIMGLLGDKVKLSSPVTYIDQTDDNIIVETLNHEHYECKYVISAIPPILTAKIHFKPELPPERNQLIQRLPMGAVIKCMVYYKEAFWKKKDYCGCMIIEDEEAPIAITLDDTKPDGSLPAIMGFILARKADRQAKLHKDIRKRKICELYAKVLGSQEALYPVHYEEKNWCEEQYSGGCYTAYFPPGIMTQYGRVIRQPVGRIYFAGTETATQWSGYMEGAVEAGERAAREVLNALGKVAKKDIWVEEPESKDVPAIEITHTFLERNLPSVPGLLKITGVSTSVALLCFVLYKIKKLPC
Nature of the test: Example 2: MAO-A activity in homogenates of striatum. In kind it is in vivo, rats. The settings on record: chronic 1 mg/kg; for MAO-A (%) inhibition: Striatum. How it is done: (§1) The effect of chronic ladostigil treatment on ChE activity in the cortex and hippocampus of rats was determined one week after icv STZ in 12 rats (3 treated with water and 9 with ladostigil). The effect of acute treatment with ladostigil 1 or 17 mg/kg was determined 2 hrs after drug administration. […] The brain was rapidly removed, washed with saline on ice and the cortex, hippocampus and striatum dissected out, quickly weighed and stored at −70° C. until assay. Total ChE activity in the cortex and hippocampus was measured as described in Wang et al., Gender differences in the effect of rivastigmine on brain cholinesterase activity and cognitive function in rats, Neuropharmacology (2000) 39:497-506, using the spectrophotometric method of Ellman et al., A new and rapid colorimetric determination of acetylcholinesterase activity, Biochem. Pharmacol. (1961) 7:88-95 with acetylthiocholine (Sigma Ltd) as a substrate using homogenate of 100 mg tissue in 1 ml phosphate buffer. To determine only butyrylcholinesterase (BuChE) activity the amounts of tissue/ml of buffer were increased 3-fold and butyrylthiocholine (Sigma Ltd) was used as a substrate. MAO A and B activity was measured in homogenates of striatum as described in Weinstock et al., Limited potentiation of blood pressure response to oral tyramine by brain-selective monoamine oxidase A-B inhibitor, TV-3326 in conscious rabbits, Neuropharmacology (2002) 43:999-1005.

Test [4] has as its system cultured microglia. In words: Release of NO from cultured microglia induced by LPS. Conditions: concentrations of 0.1-10 μM; preliminary data. In kind it is cell-based. How it is done:
It is therefore likely that the neuroprotective effect of ladostigil resulted from other actions of the drug. These could include a direct effect on microglia as shown in preliminary data from experiments in our laboratory in which concentrations of 0.1-10 μM reduced by 20-40% the release of NO from cultured microglia induced by LPS. These concentrations are too low to inhibit ChE in microglia.

The subject of test [5] is ChE. In words: Example 2: total ChE activity in cortex, hippocampus and plasma after ladostigil treatment. In kind it is in vivo, rats. As to the method:
as §1

Turning to `C#CCN[C@@H]1CCc2ccc(OC(=O)N(C)CC)cc21` [ladostigil, R(+)-6-(N-methyl,N-ethyl-carbamoyloxy)-N′-propargyl-1-aminoindan], the “Difference in spatial learning between young and old rats (Morris water maze)” value in test [1] is listed as “substantially abolished”. For the same compound, the “Apoptosis in SH-SY5Y cells exposed to the NO donor Sin1” value in test [2] (0.1-1 μM) is “prevented apoptosis”. In addition, in test [2], the “Apoptosis induced by Sin-1 in cultured SH-SY5Y cells” value is “suppress apoptosis”. Also, the results for the “MAO-A (%) inhibition” value in test [3] (60 min) and in test [3] (120 min) were 2.8 ± 2.5% and 3.8 ± 2.0%, respectively. In test [3], the “Effect on striatal MAO-A activity” value is given as “no effect”. Further, the “Reduction of the release of NO from cultured microglia induced by LPS” value in test [4] is 20-40%. Further, the “ChE (%) inhibition” value in test [5] (Cortex, 60 min after last dose, chronic 1 mg/kg, seven days after icv STZ) is recorded as 16.1 ± 4.7 %; in test [5] (Cortex, 120 min after last dose, chronic 1 mg/kg, seven days after icv STZ), 23.6 ± 3.1 %; in test [5] (Hippocampus, 60 min, chronic 1 mg/kg), 4.9 ± 2.6%; in test [5] (Hippocampus, 120 min, chronic 1 mg/kg), 5.9 ± 3.2%; in test [5] (Plasma, 120 min, chronic 1 mg/kg) it was 20 ± 2%. Also, the “ChE inhibition in the hippocampus or plasma” value in test [5] (acute administration 1 mg/kg) was “not in the hippocampus or plasma”. Moreover, the “ChE inhibition in both brain regions and in plasma” value in test [5] (acute administration 17 mg/kg, 17 mg/kg) is 40-42% and 40%. Moreover, the “Inhibition of ChE activity in the plasma” value in test [5] (chronic 1 mg/kg) stood at 20%. Also, the “Inhibition of ChE in the hippocampus” value in test [5] (chronic 1 mg/kg) was “no ChE inhibition occurred; also recorded: no significant AChE inhibition occurred”. Further, the “Inhibition of total ChE activity in the cortex” value in test [5] (chronic 1 mg/kg, seven days after icv STZ, 1 or 2 hrs after the last dose) is 24% and 28% and ~20%.
